Our source for the IC50 values is patent publication US12570675B2, “Boronic acid compounds” (LG CHEM, LTD., priority 2020, dated 2026).

In test [1] the target is Proteasome chymotrypsin-like activity (S26 protein from RPMI8226 cells) (Homo sapiens, UniProt P28074). The class given is biochemical. Particulars: S26 protein from RPMI8226 cell extract 2 ug/well, substrate 20 uM, 37° C., 90 minutes; read-out: Proteasome chymotrypsin-like activity inhibition IC50. The method in brief: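 Fluorogenic AMC substrates (20 uM final) report chymotrypsin-like (Suc-Leu-Leu-Val-Tyr-AMC) or caspase-like (Z-Leu-Leu-Glu-AMC) cleavage by RPMI8226-derived S26 protein, 2 ug/well, pH 8.0 Tris lysate.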

Test [2] deals with Proteasome caspase-like activity (S26 protein from RPMI8226 cells) (Homo sapiens (Human), UniProt P28072). The test can be described thus: Proteasome caspase-like activity inhibition (Z-Leu-Leu-Glu-AMC fluorogenic substrate, RPMI8226 cell extract). The class given is biochemical. Particulars: S26 protein from RPMI8226 cell extract 2 ug/well, substrate 20 uM, 37° C., 90 minutes. The protocol:
The abilities to inhibit the proteasome activity of the compounds described in the Examples of the present invention and boronic acid drugs were evaluated as follows.
RPMI8226 cells, which is a multiple myeloma cell line, were cultured and then separated by a centrifuge, and washed twice with phosphate buffered saline (PBS). 20 mM of a tris-HCl (pH 8.0) buffer solution was added to the washed cells, and the cells were disrupted by a homogenizer and centrifuged to obtain S26 protein from the supernatant. Suc-Leu-Leu-Val-Tyr-AMC, for a fluorogenic substrate for the chymotrypsin-like activity of the proteasome, and Z-Leu-Leu-Glu-AMC, for a fluorogenic substrate for the caspase-like activity, were purchased from Calbiochem, EMD Millipore and used. Into each well of a 96-well plate (opaque, black round bottom), 20 ul of the S26 protein (final RPMI8226 cell extract concentration: 2 ug/well), 10 ul of S26 proteasome inhibitor serially diluted from 10 uM (final DMSO concentration: 0.5%), and 20 ul of the fluorogenic substrate for the proteasome chymotrypsin-like or caspase-like activity (final concentration: 20 uM) were added and mixed and allowed to react in a 37° C. incubator for 90 minutes. The fluorescence of the fluorogenic substrate was measured by FlexStation II Fluorometer (Molecular Devices). The fluorescence inhibited by the compound diluted at each concentration was measured as the relative percentage value for the amount obtained from the treatment only with the S26 protein and the fluorogenic substrate. IC50 (inhibitory concentration 50) was expressed in terms of a concentration that inhibits 50% of the maximum fluorescence induced by the fluorogenic substrate.

A value given as a limit tells only on which side of the number the result lay.

Chain of Proteasome caspase-like activity (S26 protein from RPMI8226 cells) (P28072 whole entry): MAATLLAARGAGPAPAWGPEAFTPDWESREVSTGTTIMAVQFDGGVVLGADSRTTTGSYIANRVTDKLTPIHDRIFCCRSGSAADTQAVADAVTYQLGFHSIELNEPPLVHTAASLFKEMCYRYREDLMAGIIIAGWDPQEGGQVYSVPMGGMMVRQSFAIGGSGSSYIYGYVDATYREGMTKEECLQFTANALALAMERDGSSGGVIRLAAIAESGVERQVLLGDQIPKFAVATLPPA
Chain of Proteasome chymotrypsin-like activity (S26 protein from RPMI8226 cells) (P28074 60-263 limits assumed): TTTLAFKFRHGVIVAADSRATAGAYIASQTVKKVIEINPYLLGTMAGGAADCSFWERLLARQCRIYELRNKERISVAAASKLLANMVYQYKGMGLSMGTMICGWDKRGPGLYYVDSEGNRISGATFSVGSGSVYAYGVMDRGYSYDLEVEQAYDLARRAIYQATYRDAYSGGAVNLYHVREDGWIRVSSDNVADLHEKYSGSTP

In the case of `CC(C)C[C@H](NC(=O)C1(Cc2ccccc2)CC(CNC(=O)c2ccnn2C2CCCC2)=NO1)B(O)O` (stereo partly drawn) [Example 189, ((1R)-1-(5-benzyl-3-((1-cyclopentyl-1H-pyrazol-5-carboxamido)methyl)-4,5-dihydroisoxazol-5-carboxamido)-3-methylbutyl)boronic acid], the IC50 is below 10 nM in test [1] and above 1000 nM in test [2].
With `CC(C)C[C@H](NC(=O)C1(Cc2ccccc2)CC(CNC(=O)c2nn(C)c3ccccc23)=NO1)B(O)O` (stereo partly drawn) [Example 201, ((1R)-1-(5-benzyl-3-((1-methyl-1H-indazol-3-carboxamido)methyl)-4,5-dihydroisoxazol-5-carboxamido)-3-methylbutyl)boronic acid], the IC50 in test [1] is below 10 nM; in test [2], above 250 nM.
For `CC(C)C[C@H](NC(=O)C1CC(CNC(=O)c2cc(Cl)ccc2Cl)=NO1)B(O)O` (stereo partly drawn) [Example 68, ((1R)-1-(3-((2,5-dichlorobenzamido)methyl)-4,5-dihydroisoxazol-5-carboxamido)-3-methylbutyl)boronic acid], in that order: below 10 nM and above 500 nM.
For `CC(C)C[C@H](NC(=O)C1(Cc2ccccc2F)CC(CNC(=O)c2nccc3ccccc23)=NO1)B(O)O` (stereo partly drawn) [Example 170, ((1R)-1-(5-(2-fluorobenzyl)-3-((isoquinolin-1-carboxamido)methyl)-4,5-dihydroisoxazol-5-carboxamido)-3-methylbutyl)boronic acid], the figures for the IC50 in test [1] and in test [2] were below 10 nM and above 1000 nM, respectively.
`CC(C)C[C@H](NC(=O)C1CC(CNC(=O)c2cccc3ccccc23)=NO1)B(O)O` (stereo partly drawn) [Example 64, ((1R)-1-(3-((1-naphthamido)methyl)-4,5-dihydroisoxazol-5-carboxamido)-3-methylbutyl)boronic acid]: the 50% inhibitory concentration (IC50) in test [1] was below 10 nM; in test [2] it was above 250 nM.
For the compound `CC(C)C[C@H](NC(=O)C1(Cc2ccccc2)CC(CNC(=O)c2ccnc3c2ccn3C(C)C)=NO1)B(O)O` (stereo partly drawn) [Example 211, ((1R)-1-(5-benzyl-3-((1-isopropyl-1H-pyrrolo[2,3-b]pyridin-4-carboxamido)methyl)-4,5-dihydroisoxazol-5-carboxamido)-3-methylbutyl)boronic acid], the IC50 in test [1] was below 10 nM; in test [2], above 500 nM.
On the same counts, the results for `CC(C)C[C@H](NC(=O)C1(Cc2ccccc2)CC(CNC(=O)c2cc(C(F)(F)F)ccc2Cl)=NO1)B(O)O` (stereo partly drawn) [Example 112, ((1R)-1-(5-benzyl-3-((2-chloro-5-(trifluoromethyl)benzamido)methyl)-4,5-dihydroisoxazol-5-carboxamido)-3-methylbutyl)boronic acid] are below 10 nM and above 2500 nM.
Consider `Cc1nc(C)c(C(=O)NCC2=NOC(Cc3ccccc3)(C(=O)N[C@@H](CC(C)C)B(O)O)C2)s1` (stereo partly drawn) [Example 130, ((1R)-1-(5-benzyl-3-((2,4-dimethylthiazol-5-carboxamido)methyl)-4,5-dihydroisoxazol-5-carboxamido)-3-methylbutyl)boronic acid], for which the figures for the IC50 in test [1] and in test [2] were below 10 nM and above 500 nM, respectively.
On the same counts, the results for `CC(C)C[C@H](NC(=O)C1(Cc2ccccc2)CC(CNC(=O)c2cnn(C(C)C)c2)=NO1)B(O)O` (stereo partly drawn) [Example 188, ((1R)-1-(5-benzyl-3-((1-isopropyl-1H-pyrazol-4-carboxamido)methyl)-4,5-dihydroisoxazol-5-carboxamido)-3-methylbutyl)boronic acid] are below 10 nM and above 1000 nM.
In the case of `CC(C)C[C@H](NC(=O)C1(Cc2ccccc2)CC(COCc2nccc3ccccc23)=NO1)B(O)O` (stereo partly drawn) [Example 49, ((1R)-1-(5-benzyl-3-((isoquinolin-1-ylmethoxy)methyl)-4,5-dihydroisoxazol-5-carboxamido)-3-methylbutyl)boronic acid], the concentration for half-maximal inhibition (IC50) was below 10 nM in test [1] and above 1000 nM in test [2].
As to `CC(C)C[C@H](NC(=O)C1CC(COCc2ccccc2)=NO1)B(O)O` (stereo partly drawn) [Example 252], the IC50 in test [1] was below 100 nM; in test [2], above 500 nM.
On the same counts, the results for `CC(C)C[C@H](NC(=O)C1CC(CNC(=O)c2nccc3ccccc23)=NO1)B(O)O` (stereo partly drawn) [Example 61, ((1R)-1-(3-((isoquinolin-1-carboxamido)methyl)-4,5-dihydroisoxazol-5-carboxamido)-3-methylbutyl)boronic acid] are below 10 nM and above 500 nM.
Consider `Cc1nc(COCC2=NOC(Cc3ccccc3)(C(=O)N[C@@H](CC(C)C)B(O)O)C2)cs1` (stereo partly drawn) [Example 46, ((1R)-1-(5-benzyl-3-(((2-methylthiazol-4-yl)methoxy)methyl)-4,5-dihydroisoxazol-5-carboxamido)-3-methylbutyl)boronic acid], for which the figures for the IC50 in test [1] and in test [2] were below 10 nM and above 250 nM, respectively.
Turning to `Cc1nc(C(=O)NCC2=NOC(Cc3ccccc3)(C(=O)N[C@@H](CC(C)C)B(O)O)C2)cs1` (stereo partly drawn) [Example 117, ((1R)-1-(5-benzyl-3-((2-methylthiazol-4-carboxamido)methyl)-4,5-dihydroisoxazol-5-carboxamido)-3-methylbutyl)boronic acid], the IC50 in test [1] was below 10 nM; in test [2], above 1000 nM.
For `Cc1cnc(COCC2=NOC(Cc3ccccc3)(C(=O)N[C@@H](CC(C)C)B(O)O)C2)cn1` (stereo partly drawn) [Example 48, ((1R)-1-(5-benzyl-3-(((5-methylpyrazin-2-yl)methoxy)methyl)-4,5-dihydroisoxazol-5-carboxamido)-3-methylbutyl)boronic acid], in that order: below 25 nM and above 250 nM.
On the same counts, the results for `CC(C)C[C@H](NC(=O)C1(Cc2ccccc2)CC(CNS(=O)(=O)c2cc(Cl)ccc2Cl)=NO1)B(O)O` (stereo partly drawn) [Example 143, ((1R)-1-(5-benzyl-3-(((2,5-dichlorophenyl)sulfonamido)methyl)-4,5-dihydroisoxazol-5-carboxamido)-3-methylbutyl)boronic acid] are below 10 nM and above 500 nM.
Consider `Cc1cc(C(=O)NCC2=NOC(Cc3ccccc3)(C(=O)N[C@@H](CC(C)C)B(O)O)C2)no1` (stereo partly drawn) [Example 107, ((1R)-1-(5-benzyl-3-((5-methylisoxazol-3-carboxamido)methyl)-4,5-dihydroisoxazol-5-carboxamido)-3-methylbutyl)boronic acid], for which the IC50 in test [1] was below 10 nM; in test [2], above 500 nM.
For `Cc1cccc(COCC2=NOC(Cc3ccccc3)(C(=O)N[C@@H](CC(C)C)B(O)O)C2)n1` (stereo partly drawn) [Example 47, ((1R)-1-(5-benzyl-3-(((6-methylpyridin-2-yl)methoxy)methyl)-4,5-dihydroisoxazol-5-carboxamido)-3-methylbutyl)boronic acid], in that order: below 10 nM and above 250 nM.
On the same counts, the results for `CC(C)C[C@H](NC(=O)C1CC(CNC(=O)c2cccc3c2CCCC3)=NO1)B(O)O` (stereo partly drawn) [Example 63, ((1R)-3-methyl-1-(3-((5,6,7,8-tetrahydronaphthalen-1-carboxamido)methyl)-4,5-dihydroisoxazol-5-carboxamido)butyl)boronic acid] are below 10 nM and above 500 nM.
In the case of `CC(C)C[C@H](NC(=O)C1(Cc2ccccc2)CC(CNC(=O)c2ccc(C(F)(F)F)nc2)=NO1)B(O)O` (stereo partly drawn) [Example 179, ((1R)-1-(5-benzyl-3-((6-(trifluoromethyl)nicotinamido)methyl)-4,5-dihydroisoxazol-5-carboxamido)-3-methylbutyl)boronic acid], the IC50 in test [1] is below 10 nM; in test [2], above 500 nM.
For `CC(C)C[C@H](NC(=O)C1(Cc2ccccc2)CC(CNC(=O)c2cc(C(C)(C)C)nn2C(C)C)=NO1)B(O)O` (stereo partly drawn) [Example 224, ((1R)-1-(5-benzyl-3-((3-(tert-butyl)-1-isopropyl-1H-pyrazol-5-carboxamido)methyl)-4,5-dihydroisoxazol-5-carboxamido)-3-methylbutyl)boronic acid], in that order: below 10 nM and above 2500 nM.
On the same counts, the results for `CC(C)C[C@H](NC(=O)C1(Cc2ccccc2)CC(CNC(=O)c2ccccc2)=NO1)B(O)O` (stereo partly drawn) [Example 291] are below 10 nM and above 250 nM.
Take `CC(C)C[C@H](NC(=O)C1(Cc2ccccc2)CC(CNC(=O)c2nccc3ccccc23)=NO1)B(O)O` (stereo partly drawn) [Example 84, ((1R)-1-(5-benzyl-3-((isoquinolin-1-carboxamido)methyl)-4,5-dihydroisoxazol-5-carboxamido)-3-methylbutyl)boronic acid]: the results for the 50% inhibitory concentration (IC50) in test [1] and in test [2] were below 10 nM and above 1000 nM, respectively.
On the same counts, the results for `CC(C)C[C@H](NC(=O)C1CC([C@H](CC(C)C)NC(=O)c2nccc3ccccc23)=NO1)B(O)O` (stereo partly drawn) [Example 73, ((1R)-1-(3-((S)-1-(isoquinolin-1-carboxamido)-3-methylbutyl)-4,5-dihydroisoxazol-5-carboxamido)-3-methylbutyl)boronic acid] are below 25 nM and above 100 nM.

As usually defined, the IC50 is the concentration needed to halve the response being measured.
